The experiment has as its system Mycobacterium tuberculosis. As to the kind of experiment: Antitubercular activity against Mycobacterium tuberculosis H37Rv at 6.25 ug/ml by BACTEC 460 radiometric assay. The format is functional.

Each structure is given as a SMILES string. Active and inactive are the calls of the source. The calls are words filed in the database; no cut-off is given here.

Regarding `CCCCC[C@@H](CCCCCCCCCC(=O)O)O[C@@H]1O[C@H](C)[C@H](O)[C@H](O)[C@H]1O[C@@H]1O[C@@H](C)[C@H](O[C@@H]2O[C@@H](C)[C@H](O[C@@H]3O[C@@H](C)[C@H](O)[C@@H](O)[C@H]3O)[C@@H](O)[C@H]2O[C@@H]2O[C@H](CO)[C@@H](O)[C@H](O)[C@H]2O)[C@@H](O)[C@H]1O`, the result was inactive. Regarding `CCCCCCCCCCCC(=O)O[C@H]1[C@H](O[C@@H]2[C@@H](OC)[C@H]3OC(=O)CCCCCCCCC[C@H](CCCCC)O[C@@H]4O[C@H](C)[C@H](OC)[C@H](OC)[C@H]4O[C@@H]3O[C@H]2C)O[C@@H](C)[C@H](O[C@@H]2O[C@@H](C)[C@H](OC(=O)CC)[C@@H](OC)[C@H]2OC(=O)/C=C/c2ccccc2)[C@H]1O[C@@H]1O[C@H](COC)[C@@H](OC)[C@H](OC)[C@H]1OC`, the outcome was inactive. Usually inhibition stands for the change of the read-out against control, counted positive when it falls. High values mean a response far below the control, low ones a response near the control. Compound `CCCCCCCCCCCC(=O)O[C@H]1[C@H](O[C@@H]2[C@@H](O)[C@H]3OC(=O)CCCCCCCCC[C@H](CCCCC)O[C@@H]4O[C@H](C)[C@H](O)[C@H](O)[C@H]4O[C@@H]3O[C@H]2C)O[C@@H](C)[C@H](O[C@@H]2O[C@@H](C)[C@H](OC(=O)CC)[C@@H](O)[C@H]2OC(=O)/C=C/c2ccccc2)[C@H]1O[C@@H]1O[C@H](CO)[C@@H](O)[C@H](O)[C@H]1O` had an inhibition at 6.25 µg/mL of 13%. Consider `CCCCCCCCCCCC(=O)O[C@H]1[C@H](O[C@@H]2[C@@H](O)[C@H]3OC(=O)CCCCCCCCC[C@H](CCCCC)O[C@@H]4O[C@H](C)[C@H](O)[C@H](O)[C@H]4O[C@@H]3O[C@H]2C)O[C@@H](C)[C@H](O[C@@H]2O[C@@H](C)[C@H](OC(=O)CC)[C@@H](O)[C@H]2O)[C@H]1O[C@@H]1O[C@H](CO)[C@@H](O)[C@H](O)[C@H]1O`, for which the result was inactive.

Values taken from ChEMBL document CHEMBL1150699, “Characterization of an anti-tuberculosis resin glycoside from the prairie medicinal plant Ipomoea leptophylla” (2003).
